From US11629201B2, “PSMA-binding agents and uses thereof” (ITM Isotope Technologies Munich SE, priority 2017, dated 2023)

System: PC-3 PIP/flu tumor-bearing mice
Assay: Biodistribution studies in PC-3 PIP/flu tumor-bearing mice
Details: for Tumor-to-blood / Tumor-to-kidney / Tumor-to-liver: PC-3 PIP tumor

Molecule `Cc1ccc(CCCC(=O)NCCCCC(NC(=O)CN2CCN(CC(=O)O)CCN(CC(=O)O)CCN(CC(=O)O)CC2)C(=O)NCC2CCC(C(=O)NC(Cc3ccc4ccccc4c3)C(=O)NCCCCC(NC(=O)NC(CCC(=O)O)C(=O)O)C(=O)O)CC2)cc1` (stereo not drawn) [44Sc-PSMA-ALB-06, metal not drawn] has a Tumor-to-blood (1 h p.i.) of 0.94 ± 0.11, a Tumor-to-kidney (1 h p.i.) of 0.77 ± 0.12 and a Tumor-to-liver (1 h p.i.) of 4.28 ± 0.52. The Blood (4 h p.i.) was 18.4 ± 1.00 % IA/g, the Bone (4 h p.i.) was 2.50 ± 0.35 % IA/g and the Heart (4 h p.i.) was 6.48 ± 0.50 % IA/g. The Intestines (4 h p.i.) was 2.50 ± 0.13 % IA/g, the Kidneys (4 h p.i.) was 28.8 ± 2.46 % IA/g and the Muscle (4 h p.i.) was 2.24 ± 0.10 % IA/g. The “PC-3 PIP Tumor” value (4 h p.i.) was 61.7 ± 7.32 % IA/g, the “PC-3 flu Tumor” value (4 h p.i.) was 4.37 ± 0.43 % IA/g and the Salivary glands (4 h p.i.) was 4.55 ± 0.41 % IA/g. For the same molecule, the Spleen (4 h p.i.) was 4.10 ± 0.54 % IA/g, the Tumor-to-blood (4 h p.i.) was 3.35 ± 0.20 and the Tumor-to-kidney (4 h p.i.) was 2.14 ± 0.15. It also gave a Tumor-to-liver (4 h p.i.) of 17.93 ± 3.32, a Blood (6 h p.i.) of 15.6 ± 0.75 % IA/g and a Bone (6 h p.i.) of 2.54 ± 0.27 % IA/g. The Intestines (6 h p.i.) was 2.07 ± 0.34 % IA/g, the Kidneys (6 h p.i.) was 21.7 ± 0.42 % IA/g and the Liver (6 h p.i.) was 3.67 ± 0.68 % IA/g. The Lung (6 h p.i.) was 9.44 ± 0.86 % IA/g, the “PC-3 PIP Tumor” value (6 h p.i.) was 72.9 ± 11.1 % IA/g and the “PC-3 flu Tumor” value (6 h p.i.) was 3.87 ± 0.45 % IA/g. The Salivary gland (6 h p.i.) was 4.03 ± 0.22 % IA/g, the Spleen (6 h p.i.) was 3.67 ± 0.37 % IA/g and the Tumor-to-blood (6 h p.i.) was 4.69 ± 0.67. The Tumor-to-kidney (6 h p.i.) was 3.35 ± 0.42 and the Tumor-to-liver (6 h p.i.) was 20.2 ± 3.43.

Molecule `O=C(O)CCC(NC(=O)NC(CCCCNC(=O)C(Cc1ccc2ccccc2c1)NC(=O)C1CCC(CNC(=O)C(CCCCNC(=O)CN2CCN(CC(=O)O)CCN(CC(=O)O)CCN(CC(=O)O)CC2)NC(=O)CCCCCCC(=O)NC(CCCCNC(=O)CCCc2ccc(I)cc2)C(=O)O)CC1)C(=O)O)C(=O)O` (stereo not drawn) [^177Lu-PSMA-ALB-04, metal not drawn] has a Tumor-to-blood (1 h p.i.) of 0.20 ± 0.02, a Tumor-to-kidney (1 h p.i.) of 0.54 ± 0.09 and a Tumor-to-liver (1 h p.i.) of 0.33 ± 0.06. It also gave a Blood (24 h p.i.) of 55.3 ± 3.10 % IA/g, a Bone (24 h p.i.) of 8.88 ± 0.19 % IA/g and a Heart (24 h p.i.) of 22.1 ± 3.70 % IA/g. It also gave an Intestines (24 h p.i.) of 8.13 ± 1.31 % IA/g, a Kidneys (24 h p.i.) of 41.5 ± 1.44 % IA/g and a Liver (24 h p.i.) of 17.6 ± 2.04 % IA/g. For the same molecule, the Lung (24 h p.i.) was 40.1 ± 7.77 % IA/g, the Muscle (24 h p.i.) was 5.82 ± 1.62 % IA/g and the “PC-3 PIP Tumor” value (24 h p.i.) was 82.8 ± 6.84 % IA/g. The “PC-3 flu Tumor” value (24 h p.i.) was 14.0 ± 0.60 % IA/g, the Salivary glands (24 h p.i.) was 12.5 ± 0.42 % IA/g and the Spleen (24 h p.i.) was 13.6 ± 1.90 % IA/g. The Stomach (24 h p.i.) was 6.18 ± 0.95 % IA/g, the Tumor-to-blood (24 h p.i.) was 1.50 ± 0.11 and the Tumor-to-kidney (24 h p.i.) was 2.00 ± 0.11. The Tumor-to-liver (24 h p.i.) was 4.76 ± 0.67, the Blood (48 h p.i.) was 38.2 ± 1.48 % IA/g and the Bone (48 h p.i.) was 6.80 ± 0.67 % IA/g. For the same molecule, the Heart (48 h p.i.) was 13.6 ± 0.36 % IA/g, the Intestines (48 h p.i.) was 7.27 ± 0.82 % IA/g and the Kidneys (48 h p.i.) was 38.2 ± 4.10 % IA/g. The Liver (48 h p.i.) was 13.1 ± 0.67 % IA/g, the Lung (48 h p.i.) was 24.6 ± 2.02 % IA/g and the Muscle (48 h p.i.) was 4.62 ± 0.38 % IA/g. For the same molecule, the “PC-3 PIP Tumor” value (48 h p.i.) was 93.2 ± 12.4 % IA/g, the “PC-3 flu Tumor” value (48 h p.i.) was 12.6 ± 0.82 % IA/g and the Salivary glands (48 h p.i.) was 10.6 ± 0.42 % IA/g. For the same molecule, the Spleen (48 h p.i.) was 14.0 ± 1.70 % IA/g, the Stomach (48 h p.i.) was 5.04 ± 0.35 % IA/g and the Tumor-to-blood (48 h p.i.) was 2.45 ± 0.41. For the same molecule, the Tumor-to-kidney (48 h p.i.) was 2.47 ± 0.50, the Tumor-to-liver (48 h p.i.) was 7.16 ± 1.16 and the Blood (96 h p.i.) was 11.65 ± 1.22 % IA/g. It also gave a Bone (96 h p.i.) of 2.54 ± 0.31 % IA/g, a Heart (96 h p.i.) of 4.81 ± 0.29 % IA/g and an Intestines (96 h p.i.) of 2.36 ± 0.17 % IA/g. For the same molecule, the Kidneys (96 h p.i.) was 15.3 ± 1.49 % IA/g, the Liver (96 h p.i.) was 4.67 ± 0.82 % IA/g and the Lung (96 h p.i.) was 9.96 ± 1.44 % IA/g. The Muscle (96 h p.i.) was 1.56 ± 0.56 % IA/g, the “PC-3 PIP Tumor” value (96 h p.i.) was 61.4 ± 7.68 % IA/g and the “PC-3 flu Tumor” value (96 h p.i.) was 5.63 ± 0.37 % IA/g. For the same molecule, the Salivary glands (96 h p.i.) was 4.08 ± 0.44 % IA/g, the Spleen (96 h p.i.) was 6.76 ± 0.59 % IA/g and the Stomach (96 h p.i.) was 1.74 ± 0.11 % IA/g. For the same molecule, the Tumor-to-blood (96 h p.i.) was 5.29 ± 0.74, the Tumor-to-kidney (96 h p.i.) was 4.03 ± 0.56 and the Tumor-to-liver (96 h p.i.) was 13.4 ± 2.88. It also gave a Blood (192 h p.i.) of 3.75 ± 1.49 % IA/g, a Bone (192 h p.i.) of 1.17 ± 0.61 % IA/g and a Heart (192 h p.i.) of 1.73 ± 0.70 % IA/g. The Intestines (192 h p.i.) was 0.67 ± 0.15 % IA/g, the Kidneys (192 h p.i.) was 8.82 ± 3.83 % IA/g and the Liver (192 h p.i.) was 2.45 ± 0.81 % IA/g. The Lung (192 h p.i.) was 4.10 ± 1.77 % IA/g, the Muscle (192 h p.i.) was 0.71 ± 0.54 % IA/g and the “PC-3 PIP Tumor” value (192 h p.i.) was 57.6 ± 17.3 % IA/g. For the same molecule, the “PC-3 flu Tumor” value (192 h p.i.) was 3.31 ± 1.43 % IA/g, the Salivary glands (192 h p.i.) was 1.96 ± 0.73 % IA/g and the Spleen (192 h p.i.) was 5.22 ± 3.17 % IA/g. For the same molecule, the Stomach (192 h p.i.) was 0.56 ± 0.19 % IA/g, the Tumor-to-blood (192 h p.i.) was 15.8 ± 3.55 and the Tumor-to-kidney (192 h p.i.) was 6.91 ± 2.24. It also gave a Tumor-to-liver (192 h p.i.) of 23.9 ± 5.12.
